One block for each molecule: values may come before it.
How the values were obtained:
[1] = system: tau; assay: Ex-vivo murine brain slice cultures, Western blot of tau levels; type: cell-based, mice; details: murine brain slices
Procedure: HeLa cells stably overexpressing tau (HeLa-C3; FIG. 2A) and IMR32 cells with endogenous tau levels (FIG. 2B) were treated for 4 hrs with aqueous bayberry extract at 0, 21, 35, 70 μg/ml (0, 0.3, 0.5, and 1.0% by volume). […] Tau levels are shown as a percentage of vehicle-treated cells ±SD. […] Treatments on whole brain murine slice cultures were performed in duplicate at doses of 0, 9, 18, 35, 70, 105, 140 μg/ml (0, 0.125, 0.25, 0.5, 1.0, and 2.0% by volume) of the bayberry extract. Each point in the graph (FIG. 2E) to the right represents the average tau reductions (n=8 slices) for all four mice at the given doses relative to the average vehicle ±SD. *p<0.05 by student's t test.
4 non-transgenic 5-month-old mice were decapitated and their brains were quickly removed. 400 μm coronal sections were made using a vibratome as previously described (Jinwal et al. J. Neurosci. 2009, 29, 12079-12088; Qiu et al. J. Neurosci. 2006, 26, 12943-12955; Mirnikjoo et al. J. Biol. Chem. 2001, 276, 10888-10896. NP100572Z). […]

[2] = system: tau; assay: Western blot of tau levels in HeLa cells stably overexpressing tau (HeLa-C3); type: cell-based; details: for tau levels, effect of chirality: HeLa-C3, similar concentrations of enriched and racemic myricanol
Procedure: (§1) HeLa cells stably expressing VS-tagged 4R0N tau were maintained under G418 selection in Opti-Mem plus 10% FBS (complete media; Invitrogen) as previously described (Jinwal et al. (2009) J Neurosci 29, 12079-12088). IMR32 cells were maintained in Opti-mem plus 10% FBS and 2% 200 mM L-glutamine (Cellgro, Mediatech, Inc, Herndon, Va.). IMR32, M17, and H4 cells were maintained in Opti-mem plus 10% FBS and 2% 200 mM L-glutamine (Cellgro, Mediatech, Inc., Herndon, Va.). All cells were treated as indicated and harvested as previously described (Jinwal et al. (2009) J Neurosci 29, 12079-12088).
(§2) Protein levels were determined by using the Peirce BCA kit. Western blotting was performed by running SDS-PAGE, followed by transfer onto Immobilon-P (Millipore), as previously described (Dickey et al. (2005) Curr Alzheimer Res 2, 231-23; Koren et al. (2010) J. Bio. Chem. 285, 2498-2505).
(§3) To assess the effects of the aqueous bayberry extract on overexpressed and endogenous tau levels, a HeLa cell line stably transfected with tau (HeLa-C3) and a human IMR32 cell line derived from hippocampal neurons were treated with the bayberry extract at indicated doses for four hours. The hippocampus is the region first affected by tau deposition in Alzheimer's disease.
Briefly, the EtOH extract was subjected to acid hydrolysis to enrich the aglycone component of the extract, and was then fractionated via medium pressure liquid chromatography (MPLC). The bayberry crude extract was separated into 8 UV-active fractions by MPLC) (FIG. 4A). The MPLC extraction method was designed to identify UV active flavonoids such as myricetin).
To investigate the effect of chirality on anti-tau activity, HaLa-C3 cells were treated with the isolated (+)-αR,11S-myricanol (86% ee) and commercially available “racemic” myricanol (actually 9% ee) at the indicated concentrations.

[3] = system: tau; assay: Western blot of endogenous tau levels in IMR32 cells; type: cell-based, human; details: IMR32 hippocampus-derived cells
Procedure: as §1, §2, §3

[4] = system: Hsp70 ATPase; details: previously shown; cited from earlier work
[5] = Lactate dehydrogenase release assay for myricanol; type: cell-based

- EC50 ([2]; HeLa-C3, Western blot, read-out: EC50 for reduction of tau levels): 35 µM
SMILES: COc1c2cc(c(O)c1OC)CCCC[C@H](O)CCc1ccc(O)c-2c1 [(+)-αR,11S-myricanol]
- reduction of tau levels [1]: potently reduced tau levels
- reduction of tau levels ([2]; HeLa-C3, overexpressed tau): potently reduced tau levels
- tau levels, effect of chirality [2]: reduced significantly
- reduction of tau levels [3]: potently reduced tau levels

SMILES: O=c1c(O)c(-c2cc(O)c(O)c(O)c2)oc2cc(O)cc(O)c12 [myricetin]
- inhibition of Hsp70 ATPase activity [4]: inhibitor of Hsp70 ATPase activity

SMILES: COc1c2cc(c(O)c1OC)CCCC[C@@H](O)CCc1ccc(O)c-2c1 (racemic) [(+/−)-myricanol, reference compound]
- tau levels, effect of chirality [2]: no activity

SMILES: COc1c2cc(c(O)c1OC)CCCC[C@@H](O)CCc1ccc(O)c-2c1 [myricanol]
- tau reduction after pre-treatment with autophagy inhibitor ([2]; HeLa-C3, NH4Cl 20 mM pre-treatment): abrogated tau reductions
- tau reduction after pre-treatment with proteasomal inhibitor ([2]; HeLa-C3, epoxomicin 0.3 μM pre-treatment): abrogated tau reductions
- reduction of intracellular tau levels compared with myricetin ([2]; comparison stated in the description): more effectively reduces intracellular tau levels than myricetin
- toxicity by lactate dehydrogenase release [5]: little toxicity
